Measured values published in publication PMC12207533, “Structure-guided design of a methyltransferase-like 3 (METTL3) proteolysis targeting chimera (PROTAC) incorporating an indole–nicotinamide chemotype” (RSC Medicinal Chemistry, 2025).
“And” between values parts separate entries of the source, which are not always exact repeats. Equal values may be shown once. Read-outs that look alike come from different tables or passages of the source.

Legend:
[1] = molecular target: T1, VCB (VHL, elongin B, elongin C) (Homo sapiens, UniProt P40337); test: FP displacement assay with VCB (binary and ternary KD, cooperativity); format: binding
T1 construct: VHL (UniProt: P40337, aa 1–213); His6 (N); made in house; host or cells: E. coli BL21 (DE3)
Protocol: Fluorescence polarization (FP) displacement assays with METTL3/14 (ref. [36]) and VCB[38–40] were performed following previous protocols with slight adaptations. All experiments were conducted in black Greiner 96-well half-area plates using a Tecan Spark 10 M plate reader, equipped with polarization filters coupled to a monochromator setup (λex = 480 nm, λem = 530 nm). Reaction mixtures for METTL3/14 contained 300 nM recombinant enzyme, 20 nM FAM-labelled displacement tracer (STM-FL[36]), and the test compounds at varying concentrations in 25 mM Tris HCl, pH 7.5, 100 mM NaCl, and 10% DMSO. For VCB, the mixtures contained 40 nM recombinant enzyme, 10 nM FAM-labelled probe (FAM-DEALAHyp[…], Tocris Bioscience), and the tested compounds, at varying concentrations, in 50 mM Tris, pH 7.5, 200 mM NaCl, 2 mM DTT, and 10% DMSO. […] All measurements were performed at least as technical triplicates. Polarization values (mP) were determined from polarization-specific parallel and orthogonal fluorescence intensities using the Tecan in-built calculation routine. Using GraphPad Prism 8.0.1, the FP values were normalized, and KD values were calculated using a 4-parameter Hill equation: y(% probe bound) = bottom + ([ligand]slope) × (top–bottom)/([ligand]slope + KD slope).

human VHL = molecular target: T2, human VHL (Homo sapiens, UniProt P40337); test: HTRF human VHL binding kit; details: VHL affinity in presence and absence of METTL3/14 (4 μM)
T2 construct: purchased Revvity
Protocol: PROTACs binding to VHL or CRBN were measured using a homogeneous time-resolved fluorescence (HTRF) human VHL or CRBN binding kit (Revvity). Samples were prepared according to the manufacturer's protocol, with compounds diluted in the provided diluent while maintaining a constant DMSO concentration with a final concentration of 1.25%. For the ternary KD determinations, METTL3/14 was added at 4 μM, corresponding to approximately a 20- to 40-fold excess of binary KD, while all other component concentrations were kept as specified in the protocol. Measurements were performed in triplicate using a Tecan Spark 10 M plate reader, recording donor and acceptor emissions at λem_donor = 620 nm and λem_acceptor = 665 nm, respectively, following excitation of the HTRF donor at λex = 320 nm. The acceptor-to-donor emission ratio was calculated as ratio = signal 665 nm/signal 620 nm. Using GraphPad Prism 8.0.1, the fluorescence values were normalized, and KD values were calculated as specified above.

METTL3 [2] = system: METTL3; set-up: method as in PMID 38194973; details: cited from earlier work
MOLM-13 cells = test: Cell viability assay (CellTiter Glo 2.0); format: cell-based, human; details: MOLM-13, 72 h, read-out: IC50 (cell viability inhibition)
Protocol: To determine cell viability, MOLM-13 cells were treated with the indicated compounds in a 1 : 1 serial dilution, with pure DMSO (final: 0.1%) as the negative control. Briefly, 1000 cells were seeded in black Greiner half-area 96-well plates and incubated for 72 h with inhibitors from DMSO stocks under standard cultivation conditions. Then, Promega CellTiter Glo 2.0 reagent was added to each well according to the manufacturer's protocols, and luminescence was measured using a Tecan Spark 10 M. Experiments were conducted in technical triplicate. Data was normalized to the DMSO control and analyzed with GraphPad Prism 8.0.1 to determine EC50 values. Synergistic effects of venetoclax and AF151 on cell MOLM-13 viability were conducted accordingly, with dilution series of both compounds analyzed using the SynergyFinder+ webtoolkit.[57]

METTL3 [3] = molecular target: T3, METTL3 (Homo sapiens, UniProt Q86U44); test: Immunoblotting of METTL3 protein levels in MOLM-13 cells; format: cell-based; details: MOLM-13, 0.1-10 μM, 16 h
T3 construct: endogenous in cells; host or cells: MOLM-13
Protocol: MOLM-13 were seeded in 12-well cell culture plates at a density of 1 × 10^6 cells per mL and treated with DMSO (final: 0.1%) or different concentrations of PROTAC degraders in DMSO at the indicated times. Treatments were conducted in biological triplicate with varying passages of MOLM-13 cells. The cells were harvested by centrifugation at 500g for 5 min and washed with PBS. The cells were lysed with RIPA lysis buffer with the addition of protease inhibitor (1× cOMPLETE), and insoluble cellular parts were separated by centrifugation (12 000g for 10 min), subsequently, the supernatant was boiled with 1× Laemmli sample buffer (Carl Roth) for 5 min at 95 °C. Proteins were separated by SDS–PAGE on 4–20% Criterion™ TGX™ Precast Protein Gels (Bio-Rad) and transferred to Amersham™ Protean® 0.45 μm nitrocellulose membrane (Cytiva) using semi-dry transfer (25 V, 1 A, Towbin buffer). The membrane was blocked with 5% milk (Carl Roth) in TBST buffer and incubated with the following primary antibodies: Anti-METTL3 (1 : 1000, Abcam, ab195352), anti-METTL14 (1 : 1000, Abcam, ab220030), anti-Bcl2 (1 : 1000, Cell Signaling Technology [CST], EPR16891), anti-Mcl-1 (1 : 1000, CST, 5453 T), anti-Bcl-XL (1 : 1000, CST, 2764 T), anti-vinculin (1 : 1000, CST, 13901) or anti-GAPDH (1 : 5000, CST, D17C4) overnight at 4 °C. Subsequently, the membrane was incubated for 1 h at RT with secondary antibodies: anti-rabbit (1 : 2000, VWR, NA934) or anti-mouse (1 : 2000, VWR, 102646-160). The protein bands were detected via chemiluminescence using Pierce™ ECL western blotting substrate and a Fusion FX imaging system (Vilber). The ImageLab software (Bio-Rad) was used for band quantification.

METTL14 mRNA = test: RT-qPCR of METTL14 mRNA expression; format: cell-based, human; details: MOLM-13, AF151 2 μM or STM2457 10 μM, 24 h and 48 h
Protocol: (§1) To determine mRNA expression levels of METTL3 and METTL14, MOLM-13 cells were treated in triplicate with compound 41 (AF151, 2 μM), STM2457 (10 μM), and DMSO for 24 resp. 48 h. Afterward, total RNA was extracted using the TRIzol™ reagent (Thermo Fisher Scientific) and purified with the Monarch® Spin RNA Cleanup Kit (New England Biolabs). RT-qPCR was conducted using the two-step GoTaq® RT-qPCR system (Promega) following the manufacturer's protocol. The data were normalized to the DMSO control and GAPDH housekeeping gene (ΔΔCt) using GraphPad Prism 8.0.1.

METTL3 [4] = molecular target: METTL3; set-up: method as in PMID 33902106; details: cited from earlier work
METTL3 mRNA = test: RT-qPCR of METTL3 mRNA expression; format: cell-based, human; details: MOLM-13, AF151 2 μM or STM2457 10 μM, 24 h and 48 h
Protocol: as §1

T1 sequence (P40337 whole entry, the tested form may be a part): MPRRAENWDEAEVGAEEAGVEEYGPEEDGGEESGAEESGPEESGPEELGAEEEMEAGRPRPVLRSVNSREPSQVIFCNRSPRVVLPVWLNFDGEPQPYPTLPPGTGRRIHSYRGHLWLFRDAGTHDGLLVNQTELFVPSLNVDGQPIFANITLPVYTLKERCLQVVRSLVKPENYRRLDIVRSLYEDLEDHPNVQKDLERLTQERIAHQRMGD
T1 sequence (Q15370 whole entry partner, the tested form may be a part): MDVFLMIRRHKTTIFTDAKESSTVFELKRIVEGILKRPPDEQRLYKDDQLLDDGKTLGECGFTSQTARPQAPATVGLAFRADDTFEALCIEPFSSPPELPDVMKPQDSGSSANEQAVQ
T1 sequence (Q15369 17-112 partner limits assumed): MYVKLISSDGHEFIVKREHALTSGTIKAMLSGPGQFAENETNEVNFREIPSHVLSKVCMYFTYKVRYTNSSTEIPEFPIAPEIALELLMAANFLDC
T2 sequence (P40337 whole entry): as the sequence (P40337 whole entry, the tested form may be a part) above
T2 sequence (Q15370 whole entry partner): as the sequence (Q15370 whole entry partner, the tested form may be a part) above
T2 sequence (Q15369 whole entry partner): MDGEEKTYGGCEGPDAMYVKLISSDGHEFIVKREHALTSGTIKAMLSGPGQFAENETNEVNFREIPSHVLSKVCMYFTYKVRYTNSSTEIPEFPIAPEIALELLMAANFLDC
T3 sequence (Q86U44 whole entry): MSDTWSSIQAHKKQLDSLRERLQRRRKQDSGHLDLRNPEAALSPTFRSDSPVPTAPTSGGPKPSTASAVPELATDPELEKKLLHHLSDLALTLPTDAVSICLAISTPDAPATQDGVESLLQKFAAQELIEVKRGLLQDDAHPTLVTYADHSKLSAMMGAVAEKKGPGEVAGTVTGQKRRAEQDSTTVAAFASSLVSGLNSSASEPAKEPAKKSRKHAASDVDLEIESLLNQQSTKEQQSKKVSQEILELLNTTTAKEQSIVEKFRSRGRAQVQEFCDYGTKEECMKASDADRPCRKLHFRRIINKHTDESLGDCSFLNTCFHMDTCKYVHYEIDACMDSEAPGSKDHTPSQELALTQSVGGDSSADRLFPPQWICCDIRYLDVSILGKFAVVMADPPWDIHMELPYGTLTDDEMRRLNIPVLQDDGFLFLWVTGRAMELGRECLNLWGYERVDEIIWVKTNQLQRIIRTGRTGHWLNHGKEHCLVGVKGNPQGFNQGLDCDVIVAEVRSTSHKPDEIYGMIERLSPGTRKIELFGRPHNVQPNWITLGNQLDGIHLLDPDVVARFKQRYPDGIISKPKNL

| Kd ([1]; 40 nM VCB, 10 nM probe, absence of METTL3, read-out: KD E3-ligases (VHL, FP), binary) | Kd ([1]; absence of METTL3, read-out: KD binary (VHL)) | Kd ([1]; presence of METTL3/14 (12 μM), read-out: KD ternary (VHL)) | cooperativity (HTRF) (human VHL) | IC50 (MOLM-13 cells; Homo sapiens) | Compound | Dmax (METTL3 degradation) (METTL3 [2]) | DC50 (METTL3 [2]; read-out: DC50 (METTL3 degradation)) | METTL3 degradation (Western blot screening) (METTL3 [3]) | IC50 (MOLM-13 cells) | METTL14 mRNA level (ΔΔCt) (METTL14 mRNA) | Kd (METTL3 [4]) | METTL3 mRNA level (ΔΔCt) (METTL3 mRNA) |
| --- | --- | --- | --- | --- | --- | --- | --- | --- | --- | --- | --- | --- |
| 1700 nM | 1760 ± 264 nM | 77.4 nM and 79 nM | positive cooperativity | 780 nM | Cc1ncsc1-c1ccc([C@H](C)NC(=O)[C@@H]2C[C@@H](O)CN2C(=O)[C@@H](NC(=O)CCC#Cc2ccc(CNc3cc(N4CCC5(CC4)CN(c4cc(F)c(CN6CCC(C)(C)CC6)cc4F)CC(=O)N5)ncn3)cc2)C(C)(C)C)cc1 [WD6305] | ~91% | 140 nM | – | – | – | – | – |
| – | – | – | – | – | STM2457 [reference compound] | – | – | do not func?on as METTL3 degraders | 1820 nM | no significant changes | 1.4 nM | no significant changes |
